From ChEMBL document CHEMBL1671668, “Is the recommended dose of efavirenz optimal in young West African human immunodeficiency virus-infected children?” (Antimicrob Agents Chemother, 2009) come the findings set out here.

Molecules are shown by their SMILES.

Data set [1] has as its system Homo sapiens. In words: AUC (0 to t) in HIV-1 infected children at 12 mg/kg, po administered once daily by HPLC. It is filed as ADME, organism-based, Plasma. On the set-up: dose 12 mg/kg, route oral. As to conditions: in vivo.
The nature of data set [2]: Cmax in HIV-1 infected children at 10 to 15 mg/kg, po administered once daily by HPLC. Details: dose 10-15 mg/kg, route oral. It is filed as ADME, organism-based. As to conditions: human, in vivo.
Data set [3] in a line: Cmax in HIV-1 infected children at 14.4 mg/kg, po administered once daily by HPLC. Details: dose 14.4 mg/kg, route oral. To be noted: human, in vivo. It is filed as ADME, organism-based.
A short description of data set [4]: Cmax in HIV-1 infected children at 12 mg/kg, po administered once daily by HPLC. It is filed as ADME, organism-based. On the set-up: dose 12 mg/kg, route oral. To be noted: human, in vivo.
A short description of data set [5]: Apparent oral clearance in HIV-1 infected children at 13.3 mg/kg, po administered once daily by HPLC. On the set-up: dose 13.3 mg/kg, route oral. As to conditions: human, in vivo. It is filed as ADME, organism-based.
The nature of data set [6]: Apparent oral clearance in HIV-1 infected children at 12 mg/kg, po administered once daily by HPLC. As to conditions: human, in vivo. It is filed as ADME, organism-based. Details: dose 12 mg/kg, route oral.
Data set [7] has as its system Human immunodeficiency virus 1. The data set can be described thus: Antiviral activity against HIV1 infected in children assessed as decrease in viral burden at 14.4 mg/kg once daily measured after 3 months. It is filed as functional.
The test system of data set [8] is Homo sapiens. In words: AUC (0 to t) in HIV-1 infected children at 14.4 mg/kg, po administered once daily by HPLC. It is filed as ADME, organism-based, Plasma. Details: dose 14.4 mg/kg, route oral. As to conditions: in vivo.
Data set [9] is described as follows: Apparent oral clearance in HIV-1 infected children at 14.4 mg/kg, po administered once daily by HPLC. It is filed as ADME, organism-based. Details: dose 14.4 mg/kg, route oral. As to conditions: human, in vivo.
For data set [10], the system named is Homo sapiens. In words: AUC (0 to t) in HIV-1 infected children at 10 to 15 mg/kg, po administered once daily by HPLC. On the set-up: dose 10-15 mg/kg, route oral. To be noted: in vivo. It is filed as ADME, organism-based, Plasma.

Take `O=C1Nc2ccc(Cl)cc2[C@@](C#CC2CC2)(C(F)(F)F)O1` [EFAVIRENZ]: the area under the curve (AUC) stood at 60000 ng·h/mL in the data set on Homo sapiens [1], 65200 ng·h/mL in the data set on Homo sapiens [8] and 63600 ng·h/mL with Homo sapiens [10]. The Cmax in data set [2] was 5520 ng/mL; in data set [3] it was 3710 ng/mL; in [4], 4090 ng/mL. In addition, the CL/F in [5] was 5 mL/min/kg; in data set [6] it was 3.17 mL/min/kg; in data set [9], 3.5 mL/min/kg. Moreover, in data set [7], the “fold change (FC)” value is 2.5.

By AUC is commonly meant the area under the concentration-time curve, a measure of exposure. Usually Cmax stands for the maximum level reached in the sampled fluid or tissue. As a reminder, the CL/F is clearance divided by bioavailability, as obtained after extravascular dosing.
